Experimental findings from US10174401B2, “Methods for binding and precipitating gold using microbial-derived metallophores and their uses” (McMaster University, priority 2013, dated 2019) are described below.

Data set [1] deals with D. acidovorans. Put plainly: Growth of D. acidovorans in presence of gold precipitate or AuCl3 (MIC). It is filed as cell-based, Delftia acidovorans. Here is the method:
The assay was set up as follows: 50 μL of ddH2O containing 3.2, 1.6, 1.4, 1.2, 1.0, 0.8, 0.6, 0.4, and 0.2 mM delftibactin A was added in quadruplicate to wells within a 96-well plate. A 1.6 mM stock solution of AuCl3 was made and 50 μL was added to each well containing delftibactin A. No-delftibactin A and no-AuCl3 controls containing only water were also added to the 96-well plate in quadruplicate. This was incubated for 30 min at room temperature, during which time 10 mL of an overnight culture of D. acidovorans, grown in ACM was centrifuged and resuspended in 5 mL sterilized ddH2O. After 30 min incubation of AuCl3 with delftibactin, 100 μL of concentrated culture was added to each well. Final concentration of AuCl3 was 400 μM and the final concentrations of delftibactin A were 800, 400, 350, 300, 250, 200, 150, 100, and 50 μM. After 30 minutes of incubation at room temperature, mixtures were serial diluted and plated onto Nutrient Agar plates and incubated at 30° C. Colonies were counted after 24 h of growth. Results are shown as mean±s.d.; n=4. To assess whether D. acidovorans could grow in the presence of the gold precipitate, several milligrams of delftibactin A and AuCl3 were reacted 1:1 overnight and centrifuged, and washed once with water to concentrate the precipitate. The precipitate was resuspended in ddH2O at a final concentration of 100 mM, calculated using a molecular weight of 1227 g/mol, corresponding to a gold-delftibactin A species. D. acidovorans was grown overnight in a 96-well plate in 100 μL of ACM containing 20 μM to 10 mM gold precipitate or AuCl3. […] The MIC of AuCl3 was determined to be roughly 10 μM.

Data set [2] has as its system D. acidovorans ΔdelG. Put plainly: Delftibactin-mediated protection against gold toxicity (CFU after acute exposure). Type of data set: cell-based, Delftia acidovorans. To be noted: ΔdelG vs wild-type, 100 μM AuCl3, 30 min exposure, CFUs. On the procedure: Cultures of D. acidovorans wild type and D. acidovorans ΔdelG were grown in deferrated ACM for 2 days at 30° C. In 96-well plates, 200 μL of wild type or mutant grown culture were incubated in the presence and absence of 100 μM AuCl3. At the same time, the mutant culture was also complemented with […] delftibactin (biological levels) in the presence of 100 μM AuCl3. After 30 minutes, cultures were serially diluted in water and plated on LB agar to determine the colony forming units of D. acidovorans after gold exposure. Results are shown as mean s.d.; n=4; Two-tailed student's t-test.

A short description of data set [3]: Gold-siderophore reactions (gold nanoparticle formation, gold-iron competition, LC-MS of supernatant). To be noted: for gold nanoparticle formation (visual inspection): 10 mM AuCl3 reacted with equimolar chelator. Here is the method: Ten microliters of the AuCl3 stock solution was aliquoted into separate 200 μL microcentrifuge tubes, followed by the addition of 10 μL of each respective siderophore or metal chelator, where water was used as a control. The reaction was monitored over time and images were taken. After 2 h, a sample of the mixture was diluted 10× and analyzed by transmission electron microscopy (TEM) (see below). The remaining sample was centrifuged at 13,000 rpm for ten minutes. A 10 μL sample of the supernatant was diluted in 90 μL of water and subsequently analyzed by LC-MS. A control of unreacted siderophore and metal chelator of the same concentration was also analyzed for comparison. […] Reactions were monitored similarly. UV-vis spectrums were obtained using a Synergy 4 microplate reader (Biotek).

A short description of data set [4]: Exposure of acidobactin A to gold. To be noted: when exposed to gold.
Data set [5] relates to D. acidovorans ΔdelG. Put plainly: Gold protective comparison of delftibactin A and B (growth curves). Type of data set: cell-based, Delftia acidovorans. To be noted: 125 μM AuCl3 + 125 μM delftibactin. On the procedure:
Twenty microliter reactions were set up as follows: water only, 5 mM AuCl3, 5 mM AuCl3+delftibactin A, and 5 mM AuCl3+delftibactin B. Reactions were initiated with the addition of delftibactin A or B. After 2 h, reactions were serially diluted to 125 μM in ACM containing D. acidovorans ΔdelG diluted 1:1000 from an overnight culture. Optical density was monitored using a TECAN Sunrise™ microplate reader at 600 nm for 36 h. Results are a mean of three growth curves for each condition from a single representative experiment.

Data set [6] in a line: Time course of AuCl3 precipitation by delftibactins in absence and presence of FeCl3. To be noted: 5 mM AuCl3, compared with delftibactin A. On the procedure:
Twenty microliter reactions were set up as follows: i) water only, ii) 5 mM delftibactin A, iii) 5 mM AuCl3 iv) 5 mM FeCl3 v) 5 mM AuCl3+5 mM FeCl3 vi) 5 mM delftibactin B+5 mM AuCl3 vii) delftibactin B+5 mM AuCl3+5 mM FeCl3 viii) delftibactin B+5 mM FeCl3. Reactions were initiated by the addition of delftibactin and images were taken at time points indicated. After 2 h, reactions were serially diluted to 30 μM final concentration in ACM containing D. acidovorans ΔdelG diluted 1:1000 from an overnight culture. Optical density was monitored using a TECAN Sunrise™ microplate reader at 600 nm for 36 h. Results are a mean of three growth curves for each condition from a single representative experiment. As a second test of delftibactin protective capacity, D. acidovorans ΔdelG cells from an overnight culture were inoculated 1:1000 into 100 μL ACM in a 96-well plate containing 0 or 10 μM AuCl3, and then provided 0 or 100 μM delftibactin. Cultures were grown for 84 h at 250 rpm at 30° C. in a TECAN Sunrise™ microplate reader, measuring at 600 nm to assess growth. Results are a mean of three growth curves for each condition from a single representative experiment.

The nature of data set [7]: TEM imaging of siderophore-gold reactions. As to conditions: after 2 h reaction with AuCl3. On the procedure: Transmission electron microscopy imaging was performed with a JEOL JEM 1299 EX TEMSCAN transmission electron microscope (JEOL, Peabody, Mass., USA) operated at an accelerating voltage of 80 kV. Sample preparation: a 2 μL drop of a diluted (10×) siderophore-gold reaction was deposited over a formvar-coated TEM grid, and was allowed to dry under ambient conditions before being imaged. Gold nanoparticle size distribution was determined using the software, ImageJ.

*1 amine or outer side, *2 acyl side, *3 side chain or, on linkers, in order; H or OH if unused. Where a SMILES comes first, the peptide text is derived from it. [ ]: non-standard residue; d: D form. The star is where a group is joined. ξ: configuration not given here. NH(1-OH-2-oxopiperidin-3-yl) = O=C1C(N*)CCCN1O; ξOrn(N(OH)Ac) = CC(=O)N(O)CCCC(N)C(=O)O; ξAsp(βξ-Me) = CC(C(=O)O)C(N)C(=O)O; X2 = C/C=C(/N[*:1])C(=O)[*:2]; X1 = CC(N)C(O)C(C)C(=O)*

As to `[Cl][Au]([Cl])[Cl]` [AuCl3], the “concentration at which toxic” value in data set [1] (D. acidovorans) worked out at 10 µM. In addition, the “MIC of AuCl3” value in data set [1] (D. acidovorans grown overnight in ACM, 96-well plate) is recorded as “roughly 10 μM”. Further, the “growth of D. acidovorans” value in data set [1] (overnight in ACM containing 20 μM to 10 mM gold precipitate or AuCl3) was “No growth”. The “increase in sensitivity to gold toxicity in the ΔdelG strain” value in data set [2] was determined as 102.8 fold.

As to `O=C(O)CN(CCN(CC(=O)O)CC(=O)O)CC(=O)O` [EDTA, ethylenediaminetetraacetic acid], the “gold nanoparticle formation (visual inspection)” value (“gold nanoparticle formation” below) in data set [3] is recorded as “fail to develop a similar effect even after prolonged exposure to gold ions”.

As to `CC1CC(=O)NC(CCCN(O)C=O)C(O)CC(=O)NC(C(C)O)C(=O)NC(CCCNO)C(=O)NC(CO)C(=O)NC(C(O)C(=O)O)C(=O)O1` (stereo not shown) [acidobactin A], in data set [4], the gold complexing entry is given as “shown the gold complexing phenomenon”.

`CC(=O)N(O)CCCC[C@H](NC(=O)CC(O)(CC(=O)N[C@@H](CCCCN(O)C(C)=O)C(=O)O)C(=O)O)C(=O)O` [aerobactin]: the “gold nanoparticle formation” value in data set [3] was “fail to produce defined gold nanoparticles”.

In the case of `c1ccc(-c2ccccn2)nc1` [bipyridyl], in data set [3], the “gold nanoparticle formation” value is on record as “fail to develop a similar effect even after prolonged exposure to gold ions”.

For the compound `C/C=C(/NC(=O)CNC(=O)C(C)NC(=O)C(NC(=O)C(C)C(O)C(C)N)C(C)C(=O)O)C(=O)NC(CCCN(O)C(C)=O)C(=O)NC(C)C(=O)NC(CCCNC(=N)N)C(=O)NC1CCCN(O)C1=O` (stereo not drawn) [delftibactin B] (X1-[ξAsp(βξ-Me)]AG[X2][ξOrn(N(OH)Ac)]AR-{NH(1-OH-2-oxopiperidin-3-yl)}; configuration not given here), the “detoxification / protection against AuCl3 toxicity” value in data set [5] is “decreased detoxification”. The gold reduction efficiency entry in data set [6] is “less efficient in gold reduction”. In addition, the “gold nanoparticle formation” value in data set [3] is on record as “rapidly undergo a characteristic blackening”.

`O=C(N[C@H]1COC(=O)[C@@H](NC(=O)c2cccc(O)c2O)COC(=O)[C@@H](NC(=O)c2cccc(O)c2O)COC1=O)c1cccc(O)c1O` [enterobactin]: in data set [3], the “gold nanoparticle formation” value was “considerable gold nanoparticle formation”. In addition, the “concentration of metallophore after AuCl3 exposure” value in data set [3] (LC-MS, 2 hr exposure, vs unreacted control) is “remained unchanged”. Further, in data set [3] (equimolar FeCl3), the “reaction with gold after pre-exposure to / in presence of iron” value is “reacts with gold to a similar extent as when iron is not present”.

As for `CC(C)(C1=N[C@@](C)(C(=O)O)CS1)[C@H](O)[C@@H]1CSC([C@H]2CSC(c3ccccc3O)=N2)N1` (stereo partly shown) [yersiniabactin, reference compound], in data set [7], the “nanoparticles seen by TEM” value is listed as “did not create any distinct nanoparticles”. Also, the “gold nanoparticle formation” value in data set [3] is “does not generate substantial quantities of gold nanoparticles”.
